Reference: patent US20020035061A1, “COMPOSITIONS AND METHODS FOR TREATING INFECTIONS USING CATIONIC PEPTIDES ALONE OR IN COMBINATION WITH ANTIBIOTICS” (priority 1996, published 2002)
Like-named read-outs stand apart in the source and are kept apart here.

What was measured:
Assay type in all cases: cell-based
E. cloacae = tested on: E. cloacae
S. epidermidis = tested on: S. epidermidis
S. marcescens = tested on: S. marcescens
K. pneumoniae = tested on: K. pneumoniae
S. aureus = tested on: S. aureus
S. maltophilia = tested on: S. maltophilia
A. calcoaceticus = tested on: A. calcoaceticus
E. coli = tested on: E. coli
E. faecalis = tested on: E. faecalis
P. aeruginosa = tested on: P. aeruginosa

Sequence | MIC (E. cloacae; E. cloacae ECL007) | MIC (S. epidermidis; S. epidermidis SE010) | MIC (S. marcescens; S. marcescens SMS003) | MIC (K. pneumoniae; K. pneumoniae KP001) | MIC (S. aureus; S. aureus SA014) | MIC (S. aureus; S. aureus SA093) | MIC (S. maltophilia; S. maltophilia SMA002) | MIC (A. calcoaceticus; A. calcoaceticus AC002) | MIC (E. coli; E. coli ECO005) | MIC (E. faecalis; E. faecalis EFS001) | MIC (E. faecalis; E. faecalis EFS008) | MIC (P. aeruginosa; P. aeruginosa PA004) | also measured
ALRWPWWPWRRK [MBI 11H01CN] | >128 µg/mL | 2 µg/mL | >128 µg/mL | 8 µg/mL | 2 µg/mL | 1 µg/mL | 32 µg/mL | 2 µg/mL | 8 µg/mL | 2 µg/mL | 8 µg/mL | 128 µg/mL | 
CLRWPWWPWRRK [MBI 11D19CN] | >128 µg/mL | 8 µg/mL | >128 µg/mL | 32 µg/mL | 4 µg/mL | 2 µg/mL | 64 µg/mL | 8 µg/mL | 32 µg/mL | 4 µg/mL | 64 µg/mL | 128 µg/mL | 
IARWPWWPWRRK [MBI 11H02CN] | >128 µg/mL | 4 µg/mL | >128 µg/mL | 32 µg/mL | 2 µg/mL | 1 µg/mL | 64 µg/mL | 4 µg/mL | 16 µg/mL | 2 µg/mL | 16 µg/mL | >128 µg/mL | 
ILAWPWWPWRRK [MBI 11H03CN] | >128 µg/mL | 4 µg/mL | >128 µg/mL | 16 µg/mL | 2 µg/mL | 2 µg/mL | 64 µg/mL | 8 µg/mL | 16 µg/mL | 2 µg/mL | 8 µg/mL | >128 µg/mL | 
ILKKNPNNPARRK [MBI 11CNX1] | >64 µg/mL |  | >64 µg/mL | >64 µg/mL |  |  | >64 µg/mL |  | 64 µg/mL |  |  |  | MIC (S. aureus; S. aureus SA006): 2 µg/mL; MIC (A. calcoaceticus; A. calcoaceticus AC001): >64 µg/mL; MIC (E. faecalis; E. faecalis EFS004): 16 µg/mL; MIC (P. aeruginosa; P. aeruginosa PA024): >64 µg/mL
ILKKNPNNPNRK [MBI 11B4ACN] |  |  |  |  |  |  |  |  |  |  |  |  | MIC (E. cloacae; E. cloacae strain ECL007): >128 µg/mL; MIC (S. epidermidis; S. epidermidis strain SE010): 8 µg/mL; MIC (S. marcescens; S. marcescens strain SMS003): >128 µg/mL; MIC (K. pneumoniae; K. pneumoniae strain KP001): 32 µg/mL; MIC (S. aureus; S. aureus strain SA008): 1 µg/mL; MIC (S. maltophilia; S. maltophilia strain SMA002): 64 µg/mL; MIC (A. calcoaceticus; A. calcoaceticus strain AC002): 4 µg/mL; MIC (E. coli; E. coli strain ECO005): 32 µg/mL; MIC (E. faecalis; E. faecalis strain EFS008): 64 µg/mL; MIC (P. aeruginosa; P. aeruginosa strain PA004): >128 µg/mL
ILKKNPNNPNRRK [MBI 11CNY1] | >64 µg/mL | 128 µg/mL | >64 µg/mL | >64 µg/mL |  |  | >64 µg/mL |  | >64 µg/mL |  |  | >64 µg/mL | MIC (S. aureus; S. aureus SA006): 16 µg/mL; MIC (A. calcoaceticus; A. calcoaceticus AC001): >64 µg/mL; MIC (E. faecalis; E. faecalis EFS004): >64 µg/mL
